pEC50: −log10 of the molar value. Read-outs that look alike come from different tables or passages of the source.
Target: human APJ receptor (Homo sapiens (Human), UniProt P35414)
Assay: biochemical
Type: biochemical
Conditions: read-out: Activity hAPJ SPA EC50 IP
Protocol: The human APJ receptor was cloned by polymerase chain reaction and the gene encoding the receptor was subcloned in pFLAG-CMV™-3 expression vector (Sigma, Saint Louis, Mo. USA) in-house at Amgen. A GTPγS binding assay was performed on membranes prepared from CHO cells stably expressing human APJ receptor. The optimum experimental conditions for the concentrations of GDP, MgCl2, and NaCl in the assay buffer were initially determined. The assay was performed in 9 μL assay buffer [20 mM HEPES, pH 7.5, 5 mM MgCl2, 100 mM NaCl and 0.1% (w/v) BSA], 1 μL of diluted test compound (starting with 0.75 mM, 2-fold serial dilution with DMSO, total 22 points), 10 μL of 18 µM GDP (final concentration of 3 μM GDP), 20 μL of […] membrane protein expressing human APJ receptor captured with WGA PS beads (final concentration of 5 μg per well), and 20 μL of 0.3 nM [^35S]GTPγS (final concentration is 0.1 nM [^35S]GTPγS)(Perkin Elmer Life and Analytical Sciences, Waltham USA).

[1] = [35S]GTPγS binding, membranes from CHO cells stably expressing human APJ receptor

human APJ receptor, sequence (P35414 whole entry): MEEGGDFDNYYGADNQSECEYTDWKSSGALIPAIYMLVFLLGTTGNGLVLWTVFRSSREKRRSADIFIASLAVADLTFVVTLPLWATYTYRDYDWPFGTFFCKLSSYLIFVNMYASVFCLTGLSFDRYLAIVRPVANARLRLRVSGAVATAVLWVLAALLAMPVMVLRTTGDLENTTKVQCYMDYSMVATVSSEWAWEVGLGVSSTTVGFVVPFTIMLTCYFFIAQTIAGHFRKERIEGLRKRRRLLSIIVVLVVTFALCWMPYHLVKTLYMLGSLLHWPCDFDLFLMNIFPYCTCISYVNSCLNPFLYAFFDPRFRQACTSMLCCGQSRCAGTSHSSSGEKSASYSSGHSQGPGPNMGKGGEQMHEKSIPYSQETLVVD

## COCc1nnc(NS(=O)(=O)[C@@H](C)[C@H](OC)c2ncc(Cl)cn2)n1-c1c(OC)cccc1OC [Example 12.0, (1R,2S)-1-(5-chloro-2-pyrimidinyl)-N-(4-(2,6-dimethoxyphenyl)-5-(methoxymethyl)-4H-1,2,4-triazol-3-yl)-1-methoxy-2-propanesulfonamide]
  pEC50: 8.32

## COc1cccc(OC)c1-n1c(Cc2cccs2)nnc1NS(=O)(=O)[C@@H](C)[C@H](C)c1ncc(Cl)cn1 [Example 43.0, (2S,3R)-3-(5-chloro-2-pyrimidinyl)-N-(4-(2,6-dimethoxyphenyl)-5-(2-thiophenylmethyl)-4H-1,2,4-triazol-3-yl)-2-butanesulfonamide]
[1]
  pEC50: 8.57

## COc1ncnc(OC)c1-n1c(NS(=O)(=O)[C@@H](C)[C@H](O)c2ncc(C)cn2)nnc1C(C)(C)c1ccccc1 [Example 138.0]
[1]
  pEC50: 6.07

## COc1ncnc(OC)c1-n1c(NS(=O)(=O)[C@@H](C)[C@H](C)c2ncc(Cl)cn2)nnc1[C@@H](C)OC (single isomer, unassigned) [Example 5.0, (2S,3R)-3-(5-chloro-2-pyrimidinyl)-N-(4-(4,6-dimethoxy-5-pyrimidinyl)-5-((1R)-1-methoxyethyl)-4H-1,2,4-triazol-3-yl)-2-butanesulfonamide or (2S,3R)-3-(5-chloro-2-pyrimidinyl)-N-(4-(4,6-dimethoxy-5-pyrimidinyl)-5-((1S)-1-methoxyethyl)-4H-1,2,4-triazol-3-yl)-2-butanesulfonamide]
[1]
  pEC50: 6.51

## COc1ncnc(OC)c1-n1c(CC(F)(F)F)nnc1NS(=O)(=O)[C@@H](C)[C@H](OC)c1ncc(Cl)cn1 [Example 67.0, (1R,2S)-1-(5-chloropyrimidin-2-yl)-N-(4-(4,6-dimethoxypyrimidine-5-yl)-5-(2.2.2-trifluoroethyl)-4H-1.2.4-triazol-3-yl)-1-methoxypropane-2-sulfonamide]
[1]
  pEC50: 6.64

## COc1ncnc(OC)c1-n1c(CC2COC2)nnc1NS(=O)(=O)[C@@H](C)[C@H](C)c1ncc(Cl)cn1 [Example 33.0, (2S,3R)-3-(5-chloro-2-pyrimidinyl)-N-(4-(4,6-dimethoxy-5-pyrimidinyl)-5-(3-oxetanylmethyl)-4H-1,2,4-triazol-3-yl)-2-butanesulfonamide]
[1]
  pEC50: 6.68

## COc1ncnc(OC)c1-n1c(CC2CCCC2)nnc1NS(=O)(=O)[C@@H](C)[C@H](OC)c1ncc(Cl)cn1 [Example 28.0, (1R,2S)-1-(5-chloro-2-pyrimidinyl)-N-(5-(cyclopentylmethyl)-4-(4,6-dimethoxy-5-pyrimidinyl)-4H-1,2,4-triazol-3-yl)-1-methoxy-2-propanesulfonamide]
[1]
  pEC50: 8.35

## COCc1nnc(NS(=O)(=O)[C@@H](C)[C@@H](OC(C)C)c2ncc(C)cn2)n1-c1cc(OC)ccc1Cl [Example 163.0]
[1]
  pEC50: 7.40

## COc1cccc(OC)c1-n1c(Cc2nc(C)cs2)nnc1NS(=O)(=O)[C@@H](C)[C@H](C)c1ncc(Cl)cn1 [Example 44.0, (2S,3R)-3-(5-chloro-2-pyrimidinyl)-N-(4-(2,6-dimethoxyphenyl)-5-((4-methyl-1,3-thiazol-2-yl)methyl)-4H-1,2,4-triazol-3-yl)-2-butanesulfonamide]
[1]
  pEC50: 7.44

## COc1ncnc(OC)c1-n1c(CC2CCCCC2)nnc1NS(=O)(=O)[C@@H](C)[C@H](OC)c1ncc(Cl)cn1 [Example 29.0, (1R,2S)-1-(5-chloro-2-pyrimidinyl)-N-(5-(cyclohexylmethyl)-4-(4,6-dimethoxy-5-pyrimidinyl)-4H-1,2,4-triazol-3-yl)-1-methoxy-2-propanesulfonamide]
[1]
  pEC50: 7.68

## COCc1nnc(NS(=O)(=O)[C@@H](C)[C@H](C)c2ncc(OC)cn2)n1-c1c(OC)cccc1OC [Example 130.0]
[1]
  pEC50: 7.92

## (1R,2S)-1-(5-chloropyrimidin-2-yl)-1-methoxy-N-(4-(1-methylaclopropyl)-5-(((R)-tetrahydrofurcan-2-yl)methyl)-4H-l,2,4-triazol-3-yl)propane-2-sulfonainide or (1R,2S)-1-(5-chloroprimidin-2-yl)-1-methoxy-N-(4-(1-methylcyclopropyl)-5-(((S)-tetrahydrofuran-2-yl)methyl)-4H-l,2.4-triazol-3-yl)propane-2-sulfonamide [Example 56.0]
[1]
  pEC50: 6.38

## COc1ncnc(OC)c1-n1c(CC2CC2)nnc1NS(=O)(=O)[C@@H](C)[C@H](OC)c1ncc(Cl)cn1 [Example 27.0, (1R,2S)-1-(5-chloro-2-pyrimidinyl)-N-(5-(cyclopropylmethyl)-4-(4,6-dimethoxy-5-pyrimidinyl)-4H-1,2,4-triazol-3-yl)-1-methoxy-2-propanesulfonamide]
[1]
  pEC50: 8.12

## (S)-N-(4-(2,6-dimethoxyphenyl)-5-(methoxymethyl)-4H-1,2,4-triazol-3-yl)-l-(5-fluoropyrimidin-2-yl)piperidine-3-sulfonamide or (R)-N-(4-(2,6-dimethoxyphenyl)-5-(methoxymethyl)-4H-1,2,4-triazol-3-yl)-l-(5-fluoropyrimidin-2-yl)piperidine-3-sulfonamide [Example 78.0]
[1]
  pEC50: 6.21

## COCc1nnc(NS(=O)(=O)[C@@H](C)[C@H](OC)c2ncc(Cl)cn2)n1C(C)C [Example 144.0]
[1]
  pEC50: 5.92

## CC[C@@H](OC)c1nnc(NS(=O)(=O)[C@@H](C)[C@H](C)c2ncc(Cl)cn2)n1-c1c(OC)ncnc1OC (single isomer, unassigned) [Example 6.0, (2S,3R)-3-(5-chloro-2-pyrimidinyl)-N-(4-(4,6-dimethoxy-5-pyrimidinyl)-5-((1R)-1-methoxypropyl)-4H-1,2,4-triazol-3-yl)-2-butanesulfonamide or (2S,3R)-3-(5-chloro-2-pyrimidinyl)-N-(4-(4,6-dimethoxy-5-pyrimidinyl)-5-((1S)-1-methoxypropyl)-4H-1,2,4-triazol-3-yl)-2-butanesulfonamide]
[1]
  pEC50: 6.13

## COc1cccc(OC)c1-n1c(CCc2ccco2)nnc1NS(=O)(=O)[C@@H](C)[C@H](C)c1ncc(Cl)cn1 [Example 36.0, (2S,3R)-3-(5-chloro-2-pyrimidinyl)-N-(4-(2,6-dimethoxyphenyl)-5-(2-(2-furanyl)ethyl)-4H-1,2,4-triazol-3-yl)-2-butanesulfonamide]
[1]
  pEC50: 8.54

## COc1ncnc(OC)c1-n1c(NS(=O)(=O)[C@@H](C)[C@H](C)c2ncc(Cl)cn2)nnc1[C@@H](C)OC(C)C (single isomer, unassigned) [Example 3.0, (2S,3R)-3-(5-chloro-2-pyrimidinyl)-N-(4-(4,6-dimethoxy-5-pyrimidinyl)-5-((1R)-1-(1-methylethoxy)ethyl)-4H-1,2,4-triazol-3-yl)-2-butanesulfonamide or (2S,3R)-3-(5-chloro-2-pyrimidinyl)-N-(4-(4,6-dimethoxy-5-pyrimidinyl)-5-((1S)-1-(1-methylethoxy)ethyl)-4H-1,2,4-triazol-3-yl)-2-butane sulfonamide]
[1]
  pEC50: 6.49

## COCc1nnc(NS(=O)(=O)[C@@H](C)[C@H](C)c2ncc(Cl)cn2)n1-c1c(OC)cccc1OC [Example 10.0, (2S,3R)-3-(5-chloro-2-pyrimidinyl)-N-(4-(2,6-dimethoxyphenyl)-5-(methoxymethyl)-4H-1,2,4-triazol-3-yl)-2-butanesulfonamide]
  pEC50: 7.82

## COc1cccc(OC)c1-n1c(Cc2ccc(C)cn2)nnc1NS(=O)(=O)[C@@H](C)[C@H](C)c1ncc(C)cn1 [Example 20.0, (2S,3R)-N-(4-(2,6-dimethoxyphenyl)-5-((5-methyl-2-pyridinyl)methyl)-4H-1,2,4-triazol-3-yl)-3-(5-methyl-2-pyrimidinyl)-2-butanesulfonamide]
[1]
  pEC50: < 5.38

From patent publication US11191762B2, “Alkyl substituted triazole compounds as agonists of the APJ Receptor” (priority 2016, dated 2021)
